From ChEMBL document CHEMBL1201862, “PubChem BioAssay data set” (2004)
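Step 1: Grow cells in 96-well plates. Step 2: Expose to compound for 48 hours at 5 concentrations. Step 3: Interpolate endpoints linearly; if unreached, use highest concentration. GI50: concentration for 50% inhibition of growth.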 Activity calls are given as the source filed them. No stated cut-off is given here; in the data, active = GI50 up to about 1.1 µM and inactive = higher.

Tests used:
Assay in all cases: NCI-60 cell line screen, 48 h
[1] = tested on: T47D
[2] = tested on: SK-MEL-5
[3] = tested on: HOP-92
[4] = tested on: NCI/ADR-RES
[5] = tested on: COLO 205
[6] = tested on: ACHN
[7] = tested on: DU-145
[8] = tested on: SN12C
[9] = tested on: A549
[10] = tested on: SR
[11] = tested on: NCI-H460
[12] = tested on: NCI-H23
[13] = tested on: M14
[14] = tested on: SK-MEL-2
[15] = tested on: NCI-H522
[16] = tested on: SK-OV-3
[17] = tested on: U-251
[18] = tested on: OVCAR-5
[19] = tested on: RPMI-8226
[20] = tested on: MDA-MB-435
[21] = tested on: NCI-H226
[22] = tested on: Hs-578T
[23] = tested on: PC-3
[24] = tested on: HCC 2998
[25] = tested on: SK-MEL-28
[26] = tested on: 786-0
[27] = tested on: SF-268
[28] = tested on: OVCAR-4
[29] = tested on: RXF 393
[30] = tested on: SF-295
[31] = tested on: HCT-116
[32] = tested on: IGROV-1
[33] = tested on: HCT-15
[34] = tested on: HT-29
[35] = tested on: MOLT-4
[36] = tested on: SNB-75
[37] = tested on: SF-539
[38] = tested on: LOX IMVI
[39] = tested on: Malme-3M
[40] = tested on: HOP-62
[41] = tested on: MDA-N
[42] = tested on: CCRF-CEM
[43] = tested on: SW-620
[44] = tested on: MCF7
[45] = tested on: SNB-19
[46] = tested on: K562
[47] = tested on: MDA-MB-231
[48] = tested on: A498
[49] = tested on: OVCAR-8
[50] = tested on: UO-31
[51] = tested on: TK-10
[52] = tested on: KM12
[53] = tested on: HL-60
[54] = tested on: UACC-62
[55] = tested on: EKVX
[56] = tested on: UACC-257
[57] = tested on: BT-549
[58] = tested on: OVCAR-3

Measured: GI50

Cc1nc2c(nc1C)-c1[nH]c3c(c1C(=O)C2=O)CCCC3=O
2810 nM: [33]
active: [1] 592 nM | [20] 483 nM | [29] 516 nM | [38] 957 nM | [41] 685 nM
inactive: [2] 1490 nM | [3] 1690 nM | [4] 2250 nM | [5] 2880 nM | [6] 2640 nM | [7] 4490 nM | [8] 1770 nM | [9] 3870 nM | [10] 2080 nM | [11] 3940 nM | [12] 1930 nM | [13] 1770 nM | [14] 1790 nM | [15] 2100 nM | [16] 2400 nM | [17] 1340 nM | [18] 2180 nM | [19] 1250 nM | [21] 1620 nM | [22] 3660 nM | [23] 4250 nM | [24] 2080 nM | [25] 1710 nM | [26] 2540 nM | [27] 1470 nM | [28] 1600 nM | [30] 1790 nM | [31] 2540 nM | [32] 2550 nM | [34] 5740 nM | [35] 2230 nM | [36] 1770 nM | [37] 1680 nM | [39] 1290 nM | [40] 2320 nM | [42] 1910 nM | [43] 1950 nM | [44] 1380 nM | [45] 2330 nM | [46] 2030 nM | [47] 1590 nM | [48] 8300 nM | [49] 1500 nM | [50] 4020 nM | [51] 17500 nM | [52] 1950 nM | [53] 2420 nM | [54] 1710 nM | [55] 1480 nM | [56] 2020 nM

C/C(=N\c1ccc(Cl)c(Cl)c1)c1ccncc1
inactive: [3] > 100000 nM | [4] > 100000 nM | [5] > 100000 nM | [8] > 100000 nM | [57] > 100000 nM | [11] > 100000 nM | [12] > 100000 nM | [13] > 100000 nM | [58] > 100000 nM | [15] > 100000 nM | [16] > 100000 nM | [17] > 100000 nM | [21] > 100000 nM | [22] > 100000 nM | [23] > 100000 nM | [24] > 10000 nM | [25] > 100000 nM | [26] > 100000 nM | [27] > 100000 nM | [28] > 100000 nM | [29] > 100000 nM | [30] > 100000 nM | [31] > 100000 nM | [34] > 100000 nM | [35] > 100000 nM | [36] > 100000 nM | [38] > 100000 nM | [40] > 100000 nM | [41] > 100000 nM | [42] > 100000 nM | [43] > 100000 nM | [45] > 100000 nM | [46] > 100000 nM | [47] > 100000 nM | [49] > 100000 nM | [51] > 100000 nM | [52] > 100000 nM | [54] > 100000 nM
